# According to publication PMC6321136, “Combined In Vitro Studies and in Silico Target Fishing for the Evaluation of the Biological Activities of Diphylleia cymosa and Podophyllum hexandrum” (Molecules, 2018):
# Where two headings read alike, the source gives them in different places.
# Experiments:
# [1] = test system: Enterohemorrhagic E. coli ATCC 43895-EHEC; assay: Antibacterial microdilution assay; assay type: cell-based, Escherichia coli
# [2] = test system: Salmonella choleraesuis subs. choleraesuis sorotype Typhi BM/Panama-TY2; assay: Antibacterial microdilution assay; assay type: cell-based
# [3] = design: method as in Dar et al. [63]; settings: ref Dar et al. [63]; cited from earlier work
# [4] = test system: THP-1 cells; settings: THP-1 cells at 10 µM; ref [69]; cited from earlier work
# [5] = test system: 1-acylglycerol-3-phosphate O-acyltransferase ABHD5; design: method as in PubChem Bioassay AID 493035; settings: ref PubChem Bioassay AID 493035; cited from earlier work
# [6] = test system: Agonist, glucocorticoid receptor (GR); design: method as in PubChem Bioassay AID 720691; settings: ref PubChem Bioassay AID 720691; cited from earlier work
# [7] = test system: Agonist, p53; design: method as in PubChem Bioassay AID 651631; settings: ref PubChem Bioassay AID 651631; cited from earlier work
# [8] = test system: Agonist, thyroid stimulating hormone receptor (TSHR); design: method as in PubChem Bioassay AID 1224843; settings: ref PubChem Bioassay AID 1224843; cited from earlier work
# [9] = test system: Angiogenesis model; design: method as in PubChem Bioassay AID 575; settings: ref PubChem Bioassay AID 575; cited from earlier work
# [10] = test system: Angiogenesis model; design: method as in PubChem Bioassay AID 1117337; settings: ref PubChem Bioassay AID 1117337; cited from earlier work
# [11] = test system: Angiogenesis model; design: method as in PubChem Bioassay AID 1117340; settings: ref PubChem Bioassay AID 1117340; cited from earlier work
# [12] = test system: Antagonist, androgen receptor (AR); design: method as in PubChem Bioassay AID 743042; settings: ref PubChem Bioassay AID 743042; cited from earlier work
# [13] = test system: Antagonist, retinoic acid receptor (RAR); design: method as in PubChem Bioassay AID 1159555; settings: ref PubChem Bioassay AID 1159555; cited from earlier work
# [14] = test system: Antagonist, retinoid-related orphan receptor gamma (ROR-gamma); design: method as in PubChem Bioassay AID 1159521; settings: ref PubChem Bioassay AID 1159521; cited from earlier work
# [15] = test system: Anticancer, Colon Tumor; design: method as in PubChem Bioassay AID 771; settings: ref PubChem Bioassay AID 771; cited from earlier work
# [16] = test system: Anticancer, Leukemia; design: method as in PubChem Bioassay AID 1053195; settings: ref PubChem Bioassay AID 1053195; cited from earlier work
# [17] = test system: Anticancer, Melanoma; design: method as in PubChem Bioassay AID 192; settings: ref PubChem Bioassay AID 192; cited from earlier work
# [18] = test system: Anti-Inflammatory model; design: method as in PubChem Bioassay AID 435020; settings: ref PubChem Bioassay AID 435020; cited from earlier work
# [19] = test system: AP1 Signaling Pathway; design: method as in PubChem Bioassay AID 357; settings: ref PubChem Bioassay AID 357; cited from earlier work
# [20] = test system: beta-2 adrenergic receptor; design: method as in PubChem Bioassay AID 504459; settings: ref PubChem Bioassay AID 504459; cited from earlier work
# [21] = test system: Cell Cycle Modulation (counterscreen); design: method as in PubChem Bioassay AID 1117349; settings: ref PubChem Bioassay AID 1117349; cited from earlier work
# [22] = test system: Cell Cycle Modulation (counterscreen); design: method as in PubChem Bioassay AID 1117350; settings: ref PubChem Bioassay AID 1117350; cited from earlier work
# [23] = test system: Cytotoxicity, A549; design: method as in PubChem Bioassay AID 371; settings: ref PubChem Bioassay AID 371; cited from earlier work
# [24] = test system: Cytotoxicity, Activators, heat shock response (counterscreen); design: method as in PubChem Bioassay AID 743209; settings: ref PubChem Bioassay AID 743209; cited from earlier work
# [25] = test system: Cytotoxicity, Agonist, endoplasmic reticulum stress response; design: method as in PubChem Bioassay AID 1159517; settings: ref PubChem Bioassay AID 1159517; cited from earlier work
# [26] = test system: Cytotoxicity, Agonist, p53; design: method as in PubChem Bioassay AID 651633; settings: ref PubChem Bioassay AID 651633; cited from earlier work
# [27] = test system: Cytotoxicity, Antagonist, androgen receptor (AR); design: method as in PubChem Bioassay AID 1259242; settings: ref PubChem Bioassay AID 1259242; cited from earlier work
compound,measurement,setting,value
"COc1cc([C@@H]2c3cc4c(cc3[C@H](O)[C@H]3COC(=O)[C@H]23)OCO4)cc(OC)c1OC [Podophyllotoxin, podophyllotoxin]",EHEC E. coli Mean ± SD (percentage of inhibition of microbial growth),[1]; 250 µg/mL,No antibacterial activity
same,inhibition at 250 µg/mL,"[1]; Escherichia coli, ATCC43895, read-out: EHEC E. coli Mean ± SD (percentage of inhibition of microbial growth)",33 ± 7.76%
same,Salmonella Typhi Mean ± SD (percentage of inhibition of microbial growth),[2]; 250 µg/mL,No antibacterial activity
same,inhibition at 250 µg/mL,"[2]; Salmonella enterica, read-out: Salmonella Typhi Mean ± SD (percentage of inhibition of microbial growth)",31.6 ± 7.54%
same,IC50 TBARS lipid peroxidation,[3],higher than 250 μg/mL
same,cytotoxicity,[4],no cytotoxicity was observed
same,Exper. Activity,[5],Inactive
same,Exper. Activity,[6],Inactive
same,Exper. Activity,[7],Inactive
same,Exper. Activity,[8],Inactive
same,Exper. Activity,[9],Inactive
same,Exper. Activity,[10],Active
same,Exper. Activity,[11],Active
same,Exper. Activity,[12],Inactive
same,Exper. Activity,[13],Active
same,Exper. Activity,[14],Active
same,Exper. Activity,[15],Inactive
same,Exper. Activity,[16],Inactive
same,Exper. Activity,[17],Inactive
same,Exper. Activity,[18],Active
same,Exper. Activity,[19],Inactive
same,Exper. Activity,[20],Inactive
same,Exper. Activity,[21],Active
same,Exper. Activity,[22],Active
same,Exper. Activity,[23],Active
same,Exper. Activity,[24],Inactive
same,Exper. Activity,[25],Inactive
same,Exper. Activity,[26],Inactive
same,Exper. Activity,[27],Inactive
